Test results published in patent US20110281951A1, “Compositions and methods for treating amyloidosis” (priority 1999, published 2011).

What was measured:
Type in all cases: biochemical
[1] = molecular target: T1, Aβ(1-40) (Homo sapiens, UniProt P05067); assay: Circular dichroism analysis, pre-incubation assay, β-sheet at 218 nm; conditions: CD 218 nm, 0.02M Tris pH 7.4
T1 construct: Prepare a fresh 40 μm solution of Aβ(1-40) in 0.02M Tris, pH 7.4; made in house; host or cells: chemical synthesis (FMOC), HPLC purified
T1 sequence (P05067 672-711 limits assumed): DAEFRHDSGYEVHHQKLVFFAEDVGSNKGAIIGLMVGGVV
Description: The assay is conducted as follows:
Instrument: JASCO J-715 Spectropolarimeter.
Cell/cuvette: Hellma quartz (QS) with 1.0 mm pathlength Room temperature. Wavelength interval: 250 nm-190 nm.
Band width: 1.0 nm Response time: 1 sec Scanning speed: 20 nm/min Number of accumulations/spectrum: 5
1. Prepare a fresh 40 μm solution of Aβ(1-40) in 0.02M Tris, pH 7.4.
2. Prepare a 1 mM solution of test compounds in 0.02M Tris, pH 7.4.
3. Combine equal volumes of the Aβ(1-40) and test compound solutions.
4. Incubate the mixtures for 19 h.
5. Take the CD spectrum using the parameters above.
6. Return the mixtures to the incubator and incubate to 43 h.
7. Take the CD spectrum using the parameters above. • Inhibition of Aβ40 assembly/aggregation is determined by comparing the amount of b-sheet structure) appearing at lambda=218 nm) obtained in control and in treated sample at each timepoint.

[2] = molecular target: T2, IAPP (Homo sapiens, UniProt P10997); assay: CD analysis of IAPP fibril formation (Example 4); set-up: add 10 μL of 10 mg/mL IAPP stock solution (final 100 ng peptide)
T2 sequence (P10997 34-70 limits assumed): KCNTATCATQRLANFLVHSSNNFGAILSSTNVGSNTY

[3] = molecular target: T3, Aβ42 (Homo sapiens, UniProt P05067); assay: Solubility assay using Bradford detection (Aβ fibril formation); conditions: roughly 1:10 peptide:compound, overnight at room temperature, 10 mM phosphate buffer pH 7
T3 construct: Stock solution of Aβ42 or Aβ40 peptide at 5 mg/ml in distilled water, pH 7; made in house; host or cells: chemical synthesis (FMOC), HPLC purified
T3 sequence (P05067 672-713 limits assumed): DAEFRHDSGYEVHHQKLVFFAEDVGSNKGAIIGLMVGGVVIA
Description: Alternatively, peptides can also be obtained from a number of commercial sources (e.g., BaChem and Peninsula Laboratories, California). The assay was conducted as follows. Stock solution of Aβ42 or Aβ40 peptide at 5 mg/ml in distilled water, pH 7, and stock solutions of each test compound at 2 mg/ml in distilled water, pH 7 were prepared. • 1. Mix 5 μl (25 μg) of stock Aβ and 12.5 μl (25 μg) of stock test compounds into 1000 μl of 10 mM phosphate buffer, pH 7. This provides a molar ratio of roughly 1:10 [ peptide:compound] assuming a general molecular weight of 400 daltons for the test compounds. Control samples were prepared for both peptide and compound. These contained Aβ only using both 25 μg (5 μl stock Aβ) and 50 μg ([…]) to provide a standard curve for each run. Test compound controls contained 25 μg of material (12.5 μl of stock). All samples were mixed in 1000 μl of 10 mM phosphate buffer, pH 7 to final volume of 1017.5 μl. • 2. Incubate all samples overnight at room temperature without mixing. • 3. Spin at 14,000 rpm for 10 min in table top Eppendorf microfuge. • 4. Take 800 μl of supernatant. • 5. Add 200 μl of Bradford reagent (purchased from BioRad). • 6. Mix well by vortexing. • 7. Read at OD595 nm.

SMILES	relative inhibition compared to Aβ alone, incubation time 0 h [1]	relative inhibition compared to Aβ alone, incubation time 19 h [1]	relative inhibition compared to Aβ alone, incubation time 43 h [1]	Activity (preventing or inhibiting IAPP fibril formation) [2]	Aβ42 remaining in the supernatant (activity class) [3]
CC(CCCO)NCCCS(=O)(=O)O (stereo not drawn) [XXXVIII, 3-[(dl)-5-hydroxy-2-pentyl]amino-1-propanesulfonic acid]	— (No effect compared to Aβ alone)	+++ (+++: 50-75%)	++ (++: 25-50%)	Active	–
O=S(=O)(O)CCCNC1(CO)CCCC1 [XLII, 3-(1-hydroxymethyl-1-cyclopentyl)amino-1-propanesulfonic acid]	–	–	–	Active	–
COc1cc(-c2ccc(N=Nc3ccc4c(S(=O)(=O)[O-])cc(S(=O)(=O)[O-])c(N)c4c3O)c(OC)c2)ccc1N=Nc1ccc2c(S(=O)(=O)[O-])cc(S(=O)(=O)[O-])c(N)c2c1O.[Na+].[Na+].[Na+].[Na+] [XXIX, Chicago Sky Blue 6B]	–	–	–	–	Very active
O=S(=O)(O)CCCN1CCc2ccccc2C1 [XVII, 3-[2-(1,2,3,4-tetrahydroisoquinolinyl)]-1-propanesulfonic acid]	—^1, 2 (No effect compared to Aβ alone)	+ (+: 0-25%)	++ (++: 25-50%)	–	Active
